Experimental data as given in patent US20240335421A1, “ANETHOLE TRITHIONE FOR THE TREATMENT OF VASCULITIDES” (FRÉDÉRIC MARIN, priority 2021, published 2024).

Assays:
pulmonary arterial rings [1] = assay: Relaxation of phenylephrine pre-constricted pulmonary arterial rings (organ bath); parameters: species or system Wistar rats
Procedure: (§1) Intrapulmonary arteries of the first order (IPA1) of Wistar rats (male, 300 g) were divided into short tubular segments with an external diameter of ≈1.5-2 mm and used for isometric contraction measurement.
(§2) Arterial rings were mounted in isolated organ bath systems (EMKA Technologies), containing Krebs solution (118 mM NaCl, 4.7 mM KCl, 1.2 mM MgSO4, […], 1.2 mM KH2PO4, 2.5 mM CaCl2), and 11 mM D-glucose, pH 7.4) at 37° C. and bubbled continuously with […].
(§3) Arterial rings were stretched to a basal tension of 0.8 to 1.0 g according to their diameter. Tissues were allowed to equilibrate for 1 hour in Krebs solution and washed out every 15 minutes. A high KCl solution (80 mM) was applied in order to obtain a reference contraction used to normalize subsequent contractile responses.
Relaxation was assessed by injecting ATT (10 μM) on phenylephrine [Phe] (30 nM; Sigma) pre-constricted pulmonary arterial rings when contraction reached its steady-state.
(§4) The role of endothelium on ATT relaxant effect was assessed as aforementioned with L-NAME pre-incubation or CHAPS perfusion. Endothelial function was tested on each ring by examining the relaxation induced by 100 μM carbamylcholine (Sigma) on 1 μM or 30 nM Phe-induced pre-constricted pulmonary arterial rings. Passive and active mechanical properties were assessed using transducer systems, coupled to IOX2 software (v2.10.8, EMKA technologies, Paris, France) in order to facilitate data acquisition and analysis. Data were then analyzed using two-way ANOVA with Bonferroni post-tests (Prism 5 v.5.01).

[2] = system: TNF-α production in LPS-activated macrophages; assay: TNF-α production by LPS-activated human macrophages (ELISA); type: cell-based; details: ATT 10 μM, LPS 1 μg/mL, 48 hours, FIG. 1A
Procedure: (§5) CD14^+ human macrophages isolated from healthy donors were cultured with LPS (1 μg/mL) and ATT (10 μM) for 48 hours. At the end of the culture, the supernatants were collected and cytokine production was evaluated.
(§6) Production of TNF-α was measured by ELISA. Production of TNF-α and IL-10 were measured using a multiplex detection technique.

[3] = system: TNF-α production by LPS-activated human macrophages; assay: TNF-α production by LPS-activated human macrophages (multiplex detection); type: cell-based; details: ATT 10 μM, LPS 1 μg/mL, 48 hours, multiplex assay, FIG. 1B
Procedure: as §5, §6

pulmonary arterial rings [4] = assay: 5-HT contractile reactivity of pulmonary arterial rings with endothelium dysfunction (organ bath); parameters: species or system Wistar rats; details: ATT 10 μM, 30 minutes preincubation
Procedure: as §1, §2, §3
as §4, with “At the end” for “The role”, “the experiment, endothelial” for “endothelium on ATT relaxant effect was assessed as aforementioned with L-NAME pre-incubation or CHAPS perfusion. Endothelial”, “carbamylcholine, a potent vascular relaxing agent (100 μM; Sigma)” for “100 μM carbamylcholine (Sigma)”
Contractile responses were tested by constructing a cumulative concentration-response curve (CCRC) to 5-hydroxytryptamine [5-HT] (10 nM to 100 μM; Sigma). When indicated, tissues were preincubated during 30 minutes with ATT (10 μM), and then CCRC to 5-HT was performed in the presence or absence of the drug.
Evaluation of the role of endothelium on ATT effect was assessed using N^ω-nitro-L-arginine methyl ester [L-NAME] (100 μM, 30 minutes preincubation; Sigma) to inhibit nitric oxide-dependent relaxation, or 3-[(3-cholamidopropyl) dimethylammonio]-1-propanesulfonate [CHAPS] (0.3% in water, perfusion before mounting; Sigma) to physically damage the endothelium.

[5] = system: Adult human primary ventricular cardiomyocytes; assay: Human primary cardiomyocyte contractility assay after exposure to Kawasaki patient serum; type: cell-based; details: 12 hours exposure to KD serum + ATT 1 μM
Procedure: Adult human primary ventricular cardiomyocytes were isolated from two healthy donors by AnaBios (San Diego, USA), using their CardioPRIME™ proprietary protocol.
These isolated cardiomyocytes were exposed for 12 hours to serum obtained from Kawasaki patients in acute crisis (between 2-6 days), supplemented or not with 1 μM of ATT. In parallel, cardiomyocytes were exposed to serum from Wegener's disease patients or from convalescent Kawasaki patients, under the same conditions.
The CardioPRIME™ protocol, run on a MultiCell platform by IonOptix, allows to measure several parameters. Upon electrical field stimulation to elicit contractions (tracked by the shape change in individual cardiomyocytes under optical bright field microscopy), the contractility transients could be analyzed for changes in contraction in the different conditions (amplitude of sarcomere shortening, peak height, maximum sarcomere departure velocity, maximum sarcomere return velocity, and decay time to 30% and 90% relaxation).

[6] = system: IL-10 production by LPS-activated human macrophages; assay: IL-10 production by LPS-activated human macrophages (multiplex detection); type: cell-based; details: ATT 10 μM, LPS 1 μg/mL, 48 hours, multiplex assay, FIG. 1C
Procedure: as §5, §6

[7] = system: pulmonary arterial rings from rats with PH; assay: Chronic endothelium dysfunction by hypobaric hypoxia, in vivo minipump treatment, ex vivo 5-HT reactivity; details: 3 weeks hypobaric hypoxia, ATT 0.7 mg/mL by abdominal minipump, no ATT in the organ bath, FIG. 4
Procedure: In order to investigate the protective effects of ATT on chronic endothelium damage, rats were housed during 3 weeks in hypobaric hypoxia chambers (50 kPa or 10% O2).
Continuous treatment was induced through a minipump placed in the abdominal cavity to deliver ATT (0.7 mg/mL) or its placebo (sulfobutylether beta-cyclodextrin) during the whole hypoxia.
After euthanasia of the animal, pulmonary arterial rings were placed in an organ bath and the reactivity of the vessel was investigated by using cumulative concentration-response curve with 5-HT (10 nM to 100 μM). This ex vivo part of the study was conducted without any addition of ATT in the organ bath, meaning that the effect was exclusively related to the chronic in vivo treatment through the minipump.

Structure (SMILES)	amplitude of relaxation, ATT vs. CHAPS+ATT (pulmonary arterial rings [1]; ATT 10 μM on 30 nM phenylephrine pre-constricted rings, FIG. 3)	effect of pre-treatment with L-NAME or CHAPS on the relaxation mediated by the substance (pulmonary arterial rings [1]; ATT 10 μM on 30 nM phenylephrine pre-constricted rings, L-NAME 100 μM or CHAPS 0.3%, FIG. 3)	production of TNF-α vs. LPS-activated condition [2]	TNF-α level in LPS-activated human macrophages [3]	5-HT concentration response curve and maximum efficacy in presence of ATT and CHAPS (pulmonary arterial rings [4]; CHAPS 0.3%, compared with normal endothelium function, FIG. 2A)	5-HT concentration response curve with L-NAME (pulmonary arterial rings [4]; L-NAME 100 μM, FIG. 2B)	maximum effect of 5-HT with L-NAME (pulmonary arterial rings [4]; L-NAME 100 μM, FIG. 2B)	loss of contractility (peak height, sarcomere shortening, maximum sarcomere departure velocity) ([5]; FIGS. 6A-C)	loss of relaxation (maximum sarcomere return velocity, decay time to 90% and 30% relaxation) ([5]; FIGS. 6D-F)	production of IL-10 [6]	hyper-reactivity of the vessel induced by 5-HT after chronic hypoxia [7]	relaxation under endothelium dysfunctions induced by L-NAME or CHAPS (pulmonary arterial rings [1]; carbamylcholine 100 μM, Phe pre-constricted rings, data not shown)
COc1ccc(-c2cc(=S)ss2)cc1 [ATT, 5-(4-methoxyphenyl)-3H-1,2-dithiole-3-thione]	similar	failed 1 to affect	−88%	−51.2%	not significantly different	markedly shifted	significantly reduced	prevent this loss of contractility	prevent the loss of relaxation	−60.3%	fully abolished	–
C[N+](C)(C)CCOC(N)=O.[Cl-] [carbamylcholine]	–	–	–	–	–	–	–	–	–	–	–	fully abolished
